In ChEMBL document CHEMBL1926602, “Anisotropy studies of tRNA-T box antiterminator RNA complex in the presence of 1,4-disubstituted 1,2,3-triazoles” (Bioorg Med Chem Lett, 2011):

test system: Nucleic Acid; assay: Stabilization of A73U tRNA(Tyr)-5'Rhd-AM1A T box antiterminator RNA complex assessed as increase in anisotrophy changes by at 100 uM by fluorescence anisotropy-based assay relative to untreated control; type: nucleic-acid assay

Row | Activity [%] | Compound
1 | 6 | O=C(OC1CCCCC1n1cc(CN2CCOCC2)nn1)c1ccccc1 (stereo not given)
2 | 12 | OC(COCc1ccccc1)Cn1cc(CN2CCOCC2)nn1 (stereo not given)
3 | 6 | OC(Cn1cc(CN2CCOCC2)nn1)c1ccccc1 (stereo not given)
4 | 6 | CCOC(=O)C1CCCN(Cc2cn(CC(O)c3ccccc3)nn2)C1 (stereo not given)
5 | 24 | OC1CCCCC1n1cc(CN2CCOCC2)nn1 (stereo not given)
6 | 6 | CCOC(=O)C1CCCN(Cc2cn(CC(O)COC(=O)C3CCCCC3)nn2)C1 (stereo not given)
7 | 6 | CN(Cc1cn(CC(O)c2ccccc2)nn1)CC1CCCCC1 (stereo not given)
8 | 6 | O=C(Cc1ccccc1)OC1CCCCC1n1cc(CN2CCOCC2)nn1 (stereo not given)
9 | 18 | CCCCNC(=O)OCC(O)Cn1cc(CN(CCCC)CCCC)nn1 (stereo not given)

test system: Nucleic Acid; assay: Inhibition of A73U tRNA(Tyr)-5'Rhd-AM1A T box antiterminator RNA complex assessed as reduction in anisotrophy changes by at 100 uM by fluorescence anisotropy-based assay relative to untreated control; type: nucleic-acid assay

Row | inhibition [%] | Compound
10 | 37 | O=C(COc1ccccc1)OC1CCCCC1n1cc(CN2CCN(c3ccccc3)CC2)nn1 (stereo not given)
11 | 32 | CN(Cc1ccccc1)Cc1cn(CC(O)c2ccccc2)nn1 (stereo not given)
12 | 53 | CCCCN(CCCC)Cc1cn(C2CCCCC2OC(=O)Cc2ccccc2)nn1 (stereo not given)
13 | 5 | CCCCNC(=O)OCC(O)Cn1cc(CN2CCOCC2)nn1 (stereo not given)
14 | 11 | CCOC(=O)C1CCCN(Cc2cn(C3CCCCC3OC(=O)c3ccccc3)nn2)C1 (stereo not given)
15 | 0 | CCCCCCCC(=O)OCC(O)Cn1cc(CN2CCOCC2)nn1 (stereo not given)
16 | 26 | CC(C)CCN(C)Cc1cn(C2CCCCC2OC(=O)c2ccccc2)nn1 (stereo not given)
17 | 32 | CN(Cc1cn(C2CCCCC2OC(=O)c2ccccc2)nn1)CC1CCCCC1 (stereo not given)
18 | 47 | CCCCC(O)Cn1cc(CN(C)CC2CCCCC2)nn1 (stereo not given)
19 | 32 | CN(Cc1cn(CC(O)COC(=O)NCc2ccccc2)nn1)CC1CCCCC1 (stereo not given)
20 | 32 | OC(Cn1cc(CN2CCN(c3ccccc3)CC2)nn1)c1ccccc1 (stereo not given)
21 | 18 | CN(CCCc1ccccc1)Cc1cn(CC(O)COCc2ccccc2)nn1 (stereo not given)
22 | 12 | CCCCN(CCCC)Cc1cn(CC(O)COC(=O)C2CCCCC2)nn1 (stereo not given)
23 | 71 | CCCCCCCC(=O)OCC(O)Cn1cc(CN(CCCC)CCCC)nn1 (stereo not given)
24 | 79 | CN(CCCc1ccccc1)Cc1cn(CC(O)COC(=O)NCc2ccccc2)nn1 (stereo not given)
25 | 42 | CN(CCCc1ccccc1)Cc1cn(C2CCCCC2OC(=O)COc2ccccc2)nn1 (stereo not given)
26 | 16 | O=C(OC1CCCCC1n1cc(CN2CCC(c3ccccc3)CC2)nn1)c1ccccc1 (stereo not given)
27 | 18 | CN(Cc1cn(CC(O)COC(=O)C2CCCCC2)nn1)CC1CCCCC1 (stereo not given)
28 | 26 | CCCCCCCC(=O)OCC(O)Cn1cc(CN2CCN(c3ccccc3)CC2)nn1 (stereo not given)
29 | 32 | O=C(NCc1ccccc1)OCC(O)Cn1cc(CN2CCN(c3ccccc3)CC2)nn1 (stereo not given)
30 | 16 | CCCCC(O)Cn1cc(CN2CCC(c3ccccc3)CC2)nn1 (stereo not given)
31 | 47 | CCCCC(O)Cn1cc(CN(C)CCC(C)C)nn1 (stereo not given)
32 | 42 | CCCCN(CCCC)Cc1cn(CC(O)COC(=O)NCc2ccccc2)nn1 (stereo not given)
33 | 12 | CCCCNC(=O)OCC(O)Cn1cc(CN(C)CC2CCCCC2)nn1 (stereo not given)

Row | inhibition [%] | Compound
34 | 26 | CC(C)CCN(C)Cc1cn(CC(O)COC(=O)NCc2ccccc2)nn1 (stereo not given)
35 | 32 | CCCCN(CCCC)Cc1cn(C2CCCCC2O)nn1 (stereo not given)
36 | 21 | CCOC(=O)C1CCCN(Cc2cn(C3CCCCC3OC(=O)COc3ccccc3)nn2)C1 (stereo not given)
37 | 47 | CCOC(=O)C1CCCN(Cc2cn(CC(O)COC(=O)NCc3ccccc3)nn2)C1 (stereo not given)
38 | 24 | CCCCNC(=O)OCC(O)Cn1cc(CN2CCCC(C(=O)OCC)C2)nn1 (stereo not given)
39 | 42 | CC(C)CCN(C)Cc1cn(C2CCCCC2O)nn1 (stereo not given)
40 | 32 | CN(CCc1ccccc1)Cc1cn(C2CCCCC2OC(=O)COc2ccccc2)nn1 (stereo not given)
41 | 21 | CN(CCc1ccccc1)Cc1cn(C2CCCCC2O)nn1 (stereo not given)
42 | 24 | CCCCNC(=O)OCC(O)Cn1cc(CN(C)CCC(C)C)nn1 (stereo not given)
43 | 12 | CCCCCCCC(=O)OCC(O)Cn1cc(CN(C)CCCc2ccccc2)nn1 (stereo not given)
44 | 42 | CN(CCc1ccccc1)Cc1cn(CC(O)COC(=O)NCc2ccccc2)nn1 (stereo not given)
45 | 26 | CCOC(=O)C1CCCN(Cc2cn(CC(O)COCc3ccccc3)nn2)C1 (stereo not given)
46 | 0 | CC(C)CCN(C)Cc1cn(CC(O)COC(=O)C2CCCCC2)nn1 (stereo not given)
47 | 53 | CCCCC(O)Cn1cc(CN2CCCC(C(=O)OCC)C2)nn1 (stereo not given)
48 | 6 | CN(Cc1cn(CC(O)COCc2ccccc2)nn1)CC1CCCCC1 (stereo not given)
49 | 58 | CC(C)CCN(C)Cc1cn(CC(O)c2ccccc2)nn1 (stereo not given)
50 | 47 | OC1CCCCC1n1cc(CN2CCN(c3ccccc3)CC2)nn1 (stereo not given)
51 | 12 | CN(CCCc1ccccc1)Cc1cn(CC(O)COC(=O)c2ccccc2)nn1 (stereo not given)
52 | 42 | O=C(COc1ccccc1)OC1CCCCC1n1cc(CN2CCC(c3ccccc3)CC2)nn1 (stereo not given)
53 | 6 | CCCCN(CCCC)Cc1cn(CC(O)COCc2ccccc2)nn1 (stereo not given)
54 | 37 | CCCCC(O)Cn1cc(CN(C)CCCc2ccccc2)nn1 (stereo not given)
55 | 6 | CN(Cc1cn(CC(O)COC(=O)c2ccccc2)nn1)CC1CCCCC1 (stereo not given)
56 | 16 | CCOC(=O)C1CCCN(Cc2cn(C3CCCCC3O)nn2)C1 (stereo not given)
57 | 11 | O=C(OCC(O)Cn1cc(CN2CCN(c3ccccc3)CC2)nn1)c1ccccc1 (stereo not given)

Row | inhibition [%] | Compound
58 | 47 | CCCCC(O)Cn1cc(CN2CCN(c3ccccc3)CC2)nn1 (stereo not given)
59 | 5 | O=C(COc1ccccc1)OC1CCCCC1n1cc(CN2CCOCC2)nn1 (stereo not given)
60 | 5 | CN(Cc1cn(C2CCCCC2OC(=O)Cc2ccccc2)nn1)CC1CCCCC1 (stereo not given)
61 | 37 | OC(COCc1ccccc1)Cn1cc(CN2CCN(c3ccccc3)CC2)nn1 (stereo not given)
62 | 29 | O=C(NCc1ccccc1)OCC(O)Cn1cc(CN2CCC(c3ccccc3)CC2)nn1 (stereo not given)
63 | 18 | CN(CCc1ccccc1)Cc1cn(CC(O)COCc2ccccc2)nn1 (stereo not given)
64 | 21 | O=C(OC1CCCCC1n1cc(CN2CCN(c3ccccc3)CC2)nn1)c1ccccc1 (stereo not given)
65 | 11 | O=C(OCC(O)Cn1cc(CN2CCOCC2)nn1)C1CCCCC1 (stereo not given)
66 | 0 | CCCCC(O)Cn1cc(CN2CCOCC2)nn1 (stereo not given)
67 | 59 | CC(C)CCN(C)Cc1cn(C2CCCCC2OC(=O)COc2ccccc2)nn1 (stereo not given)
68 | 18 | CCCCC(O)Cn1cc(CN(CCCC)CCCC)nn1 (stereo not given)
69 | 37 | CN(Cc1cn(C2CCCCC2OC(=O)COc2ccccc2)nn1)CC1CCCCC1 (stereo not given)
70 | 5 | O=C(OCC(O)Cn1cc(CN2CCOCC2)nn1)c1ccccc1 (stereo not given)
71 | 0 | CN(CCc1ccccc1)Cc1cn(CC(O)COC(=O)c2ccccc2)nn1 (stereo not given)
72 | 42 | OC1CCCCC1n1cc(CN2CCC(c3ccccc3)CC2)nn1 (stereo not given)
73 | 12 | CCCCN(CCCC)Cc1cn(CC(O)COC(=O)c2ccccc2)nn1 (stereo not given)
74 | 6 | CCOC(=O)C1CCCN(Cc2cn(CC(O)COC(=O)c3ccccc3)nn2)C1 (stereo not given)
75 | 47 | CN(Cc1cn(C2CCCCC2O)nn1)CC1CCCCC1 (stereo not given)
76 | 29 | CCCCC(O)Cn1cc(CN(C)CCc2ccccc2)nn1 (stereo not given)
77 | 11 | CCCCNC(=O)OCC(O)Cn1cc(CN2CCN(c3ccccc3)CC2)nn1 (stereo not given)
78 | 26 | CCCCN(CCCC)Cc1cn(C2CCCCC2OC(=O)COc2ccccc2)nn1 (stereo not given)
79 | 21 | CCOC(=O)C1CCCN(Cc2cn(C3CCCCC3OC(=O)Cc3ccccc3)nn2)C1 (stereo not given)
80 | 0 | CC(C)CCN(C)Cc1cn(CC(O)COC(=O)c2ccccc2)nn1 (stereo not given)
